The test system of the assay is Experimental allergic encephalitis (EAE) in female C57BL/6 mice. The assay is described as follows: EAE model in C57BL/6 mice, daily neurological clinical score (Example 2). The settings on record: C57BL/6 mice treated from clinical score 2 for 28 days; DMF 15 mg/kg BID, GCZ 5 mg/kg BID, alone or combined; compared to vehicle control and single agents. It counts as in vivo, mouse. The procedure:
Experimental allergic encephalitis (EAE) is induced in female C57BL/6 mice (10 weeks old) by subcutaneous injection in the flank regions (left and right sides) with 200 μl total of an emulsion of MOG35-55 peptide (200 μg in 100 μl phosphate buffered saline plus 100 μl of complete Freund's adjuvant containing […] of heat-inactivated Mycobacterium tuberculosis). Each mouse then receives 200 ng of pertussis toxin intraperitoneally (IP) on the day of immunization (day 0) and then again 48 h later (day 2). Neurological assessments are reported using a five-point standardized rating scale to evaluate motor deficit: 0, no deficit; 1, tail paralysis; 2, unilateral hind limb weakness; 3, incomplete bilateral hind limb paralysis and/or partial forelimb weakness; 4, complete hind limb paralysis and partial forelimb weakness; 5, moribund state or death.
The DMF is prepared as a suspension (15 mg/ml) in 0.8% hydroxypropyl methylcellulose (HPMC) weekly and kept at 4° C. under constant stirring. DMF is diluted into 200 μl HPMC, corresponding to a dose of 15 mg/kg body weight, and is administered twice daily (30 mg/kg/day) by oral gavage through a bulb-tipped curved gastric gavage needle by trained operators.
Experimental allergic encephalitis (EAE) was induced in female C57BL/6 mice as described in Example 1. […]

Where a name gives a salt, the structure may show the parent alone.

As to `COC(=O)/C=C/C(=O)OC` [DMF, dimethyl fumarate], the “EAE clinical scores (five-point motor deficit scale 0-5), fitted regression curves” value is “no observed difference”.
In the case of `Cc1ccc(S(=O)(=O)NC(=O)NN2CC3CCCC3C2)cc1` (centres unmarked) [GCZ, gliclazide], the “EAE clinical scores (five-point motor deficit scale 0-5), fitted regression curves” value is on record as “no observed difference”.
